# What was measured:
# STZ-diabetic Wistar rats [1] = assay: Experiment 4: histological alterations of early diabetic retinopathy after 1 month of treatment; type: in vivo, rat; conditions: for Score values Improvement % / Score values Mean ± SE (retinopathy histology) / effect on diabetic retinopathy induced pathological histological alterations: 1 month; for effect on diabetic retinopathy induced pathological histological alterations: Compound A 5 mg/kg, bimoclomol 20 mg/kg daily
# Procedure: Photographs and slide positives were prepared of representative samples.
# The given value for negative cases was 0.1. A Box and Whisker plot graph was also prepared.
# STZ-diabetic Wistar rats [2] = assay: Experiment 2: peripheral neuropathy, nerve conduction velocity after 1-month treatment; type: in vivo, rat; conditions: for MNCV / MNCV improvement / SNCV / SNCV improvement: 1 month; for effect on motor (MNCV) and sensor (SNCV) nerve conduction velocities: bimoclomol 20 mg/kg, Compound A 5 mg/kg once a day
# Excerpt: (§1) (Graphpad Instat, San Diego, Calif.).
# STZ-diabetic Wistar rats [3] = assay: Experiment 3: diabetic autonomous neuropathy after 1 month of treatment; type: in vivo, rat; conditions: daily 20 mg/kg single dose
# Procedure: The experiments were performed under anesthesia achieved by administering 60 mg/kg ip. pentobarbital sodium (Nembutal, Sanofi, Phylaxia). After this, an intratracheal tube or polyethylene canula was inserted into the fermoral artery and vein. The arterial catheter was connected to a pressure transducer for the simultaneous measurement of systolic and diastolic blood pressure (online automatic measuring and forwarding system, with a Haemosys computer program). After 20 minutes of equillibration period, the following substances were administered intravenously: Noradrenalin, 5 μg/kg iv.—Isoproterenol 0.4 μg/kg iv.—N.vagus stimulation (2 V, duration: 500 μsec, delay: 1 msec). The effects of the substances were monitored for 10 minutes.
# STZ diabetic Wistar rats = assay: Preliminary test: N-oxide derivatives of bimoclomol on motor and sensor nerve conduction velocity deficit; type: in vivo, rat; conditions: 20 mg/kg
# Procedure: In a preliminary test the effectiveness of the three N-oxide derivatives of bimoclomol on motor and sensor neuropathy in STZ diabetic Wistar rats were studied. The effectiveness of the three bimoclomol N-oxide derivatives in improving the peripheral motor and sensor nerve conduction velocity deficit caused by streptozotocine-induced diabetes was determined with use of the method described in detail in Experiment 2.
# as §1
# [4] = test system: obese, insulin resistant, hyperinsulinaemic Zucker fa/fa rats; assay: Experiment 1: carbohydrate metabolism (fasting glucose/insulin, ip glucose tolerance test) after 2-month treatment; type: in vivo, rat; conditions: for Fasting Blood Glucose (mean ± SE) / Fasting Insulin (mean ± SE) / Blood Glucose (AUC) (mean ± SE) / Insulin (AUC) (mean ± SE): 2-month treatment; for effect on AUC of insulin / effect on area under the blood glucose curve (AUC): intraperitoneal glucose tolerance test; for Blood Glucose (AUC) (mean ± SE) / Insulin (AUC) (mean ± SE): ip glucose tolerance test 2 g/kg, AUC 0-60 minutes; for effect on peripheral insulin resistance: summary of Experiment 1
# Procedure: In the experiments so-called Zucker fa/fa rats (Charles River Laboratories Inc.) were used. In […] animals, obesity, insulin resistance, high blood insulin level, impaired glucose tolerance and hypertriglyceridaemia result from hypothalamic leptin receptor mutation. Due to the above characteristics, this is an accepted model of early type 2 diabetes.
# The animals were placed in individual metabolic cages for 24 hours at the beginning of the study, and after 1 or 2 months of treatment for 24 hours of urine collection.
# The animals were given either the test substances or physiological saline solution by gavage for control once a day between weeks 14-22.
# Biochemical parameters of the blood and the urine were measured by a Kodak Ectachem 700 automatic analyzer. The total protein level of the urine was determined spectrophotometrically with the use of Bradford staining (Hitachi U-3200) at 595 nm. The insulin concentration of the serum was determined by the RIA method, using rat anti-insulin antibodies.
# Systolic, diastolic blood pressure and heart rate were measured weekly on the tails of the rats (so-called tail cuff method) by a Letica 200 automatic analyzer. After two months of treatment, the level of glucose tolerance was determined by the intraperitoneal glucose tolerance test (2 g/kg ip.).
# STZ-diabetic Wistar rats [5] = assay: Experiment 5: urinary protein loss caused by diabetic nephropathy after 1-month treatment; type: in vivo, rat; conditions: for 24-hour Urinary Protein Loss Mean ± SE: 1 month; for effect on STZ-diabetes-induced urinary protein loss: Bimoclomol 20 mg/kg, Compound-A 10 mg/kg, (+) enantiomer 5 mg/kg daily
# Procedure: For the 24-hour period of urine collection, the animals were placed in individual metabolic cages. During this period they were given water ad libitum but no food. The latter measure was necessary to prevent possible contamination by the protein content of the food. Urine was collected in calibrated glass containers, in which Thymol crystal (Reanal 3135-1-08-38) was placed to prevent bacterial contamination.
# Before measurement, the urine samples were centrifuged (2500 rpm) and filtered through a paper filter (Whatmann 1). If necessary, they were stored at −20° C. until measurement.
# The total protein content of the urine was determined by the Bradford staining method (Sigma B-6916, St. Louis, Mo.), and color intensity was detected by spectrophotometry (Hitachi-U-3200).
# STZ-diabetic Wistar rats [6] = assay: Experiment 6: Compound-A and enantiomers, nerve conduction velocity after 1 month treatment
# Procedure: In the experiments, male Wistar rats were used (Charles River Laboratories Inc.). At the start of the experiment, their weights were 340-370 g. Diabetes was induced by the intravenous administration of a single 45 mg/kg dose of streptozotocine (STZ, Sigma, St. Louis, Mo.) dissolved in physiological saline solution. The development of diabetes was checked after 1 day by a blood glucose test, accepting a value over 15 mmol/l.
# The test and reference substances were administered p.os to the animals once a day.
# For the determination of nerve conduction velocity (NCV), the method of Stanley, modified by De Konig and Gispen was used. The animals were anesthetized by the simultaneous administration of Hyponorm (1 mg/kg ip., Janssen, Tilburg, Denmark), fluanisone (10 mg/ml), and phentanyl citrate (0.2 mg/ml). Afterwards, the left ischiadicus and tibial nerves were stimulated at standard points. Supramaximal stimulus (square impulse, 0.03 ms) was used with a platinum needle electrode, through a Nihon-Kohden (model SEN-1104, Japan) stimulator. The electromyogram (EMG) transferred from the sole muscles and intensified by a myograph (Elema-Schonander, Stockholm, Sweden) was analyzed further by the Matlab for Windows (Mathwork Inc, UK) program. The extent of NCV damage caused by diabetes was expressed in m/s. The effectiveness of the treatment was compared to this in terms of percentage (%). The statistical calculations were done by unpaired t-test or single-criterion ANOVA test (along with the Newman-Keuls post hoc test).
# STZ-diabetic rats = conditions: 2 month
# Procedure: After anesthesia (Calypsovet, 125 mg/kg. Ip., Richter Rt., Hungary), the eyes were enucleated and fixed in 4% formaldehyde dissolved in a phosphate buffer (pH:7.4).
# Afterwards, they were embedded in paraffin (Medim DDM P800, embedding center: Lignifer L-120-92-014, stainer: Shandon Eliott, Microtome: is Leica SM 2000 R, Microscope: Jenaval Karl Zeiss Jena). Several 6 micron sections of the eyes were prepared, and hematoxilyn/eosine (Fluka) and PAS (periodic acid-Schiff, Fluka) staining were used. The light-microscopic evaluation was performed at a magnification of 40× and 100×. Photographs and slide positives were prepared of representative samples.
# The histological evaluation was performed on coded samples, the group division was unknown for the examiner. Pathological deviations of the retina were graded on a scale of 0-20, while those of the lens on a scale of 0-3.
# The statistical calculations were done with the Statistica 4.5 (SatSoft, USA) program. The given value for negative cases was 0.1. A Box and Whisker plot graph was also prepared.
# For each group in the experiment, the mean±SE (Standard Error) values were calculated, and the comparison was done with the help of a non-parametric Mann-Whitney U-test (Graphpad Instat, San Diego, Calif.).
# STZ-diabetic Wistar rats [7] = test system: STZ-diabetic Wistar rats
# Excerpt: The experiments were accomplished on Wistar rats with a body weight of 320-350 g. Diabetes was induced and checked as described in Experiment 2. In the test animals having been diabetic for 3 weeks the left nervus ischidiacus was injured by freezing and the right side one was used as non-injured control. The regeneration was observed by monitoring the signals of the flexor reflex provoked by irritation of the sole that is areas under curve (AUC) of the electromyogram transferred from the forward tibial muscle. For the stimulation and detection the system described in Experiment 2 was used. Single daily doses of 10 mg/kg of Compound-A and 5 mg/kg of A(+) enantiomer were administred for 5 weeks after the injury by freezing.
# [8] = 1 month, isoproterenol 0.4 μg/kg iv.
# [9] = Compound-A 10 mg/kg, enantiomers 5 mg/kg daily
smiles,measurement,setting,value
"O=C(O)/C=C\C(=O)O.OC(CON=C(Cl)c1cccnc1)CN1CCCCC1 (racemic) [bimoclomol, maleate of O-(3-piperidino-2-hydroxy-1-propyl)-3-pyridyne hydroxymic acid-chloride, reference compound]",Score values Improvement %,STZ-diabetic Wistar rats [1]; 20 mg/kg daily,61.3%
same,Score values Mean ± SE (retinopathy histology),STZ-diabetic Wistar rats [1]; 20 mg/kg daily,5.185 ± 1.019
same,effect on diabetic retinopathy induced pathological histological alterations,STZ-diabetic Wistar rats [1],significantly improved
same,MNCV,STZ-diabetic Wistar rats [2]; 20 mg/kg p.os once a day,57.4 ± 0.2 m/s
same,MNCV improvement,STZ-diabetic Wistar rats [2]; 20 mg/kg p.os once a day,79.7%
same,SNCV,STZ-diabetic Wistar rats [2]; 20 mg/kg p.os once a day,58.5 ± 0.6 m/s
same,SNCV improvement,STZ-diabetic Wistar rats [2]; 20 mg/kg p.os once a day,77.9%
same,effect on motor (MNCV) and sensor (SNCV) nerve conduction velocities,STZ-diabetic Wistar rats [2],significantly improved
same,effect on pathological deviations resulting from autonomous neuropathy,STZ-diabetic Wistar rats [3],significantly reduced
same,Increased negative chronotropic effect on vagus stimulation,STZ-diabetic Wistar rats [3]; 1 month,↑ (corrects)
same,Reduced hypotension on vagus stimulation,STZ-diabetic Wistar rats [3]; 1 month,↑ (corrects)
same,Systemic arterial hypotension (deviation due to diabetes),STZ-diabetic Wistar rats [3]; 1 month,↑ (corrects)
same,Weight loss (deviation due to diabetes),STZ-diabetic Wistar rats [3]; 1 month,↑ (corrects)
same,Reduced IS induced positive chronotropic effect,STZ-diabetic Wistar rats [3]; [8],↑ (corrects)
same,Reduced IS induced systemic arterial hypotension,STZ-diabetic Wistar rats [3]; [8],↑ (corrects)
same,Reduced NA induced systemic arterial pressure response,"STZ-diabetic Wistar rats [3]; 1 month, noradrenalin 5 μg/kg iv.",↑ (corrects)
same,Improvement of nerve conduction velocity (%) motor (MNCV),STZ diabetic Wistar rats,"72,4%"
same,Improvement of nerve conduction velocity (%) sensor (SNCV),STZ diabetic Wistar rats,"66,9%"
same,effect on fasting blood glucose,[4]; 20 mg/kg p.os daily,significantly reduced
same,effect on fasting insulin concentration,[4]; 20 mg/kg p.os daily,did not effect
same,Fasting Blood Glucose (mean ± SE),[4]; 20 mg/kg p.os daily,8.179 ± 0.316 mmol/L
same,Fasting Insulin (mean ± SE),[4]; 20 mg/kg p.os daily,29.362 ± 9.211 ng/mL
same,effect on AUC of insulin,[4],had no effect
same,effect on area under the blood glucose curve (AUC),[4],"neither bimoclomol, nor Compound A effected"
same,Blood Glucose (AUC) (mean ± SE),[4]; 20 mg/kg p.os daily,1286.86 ± 131.59
same,Insulin (AUC) (mean ± SE),[4]; 20 mg/kg p.os daily,2337.71 ± 590.49
same,effect on peripheral insulin resistance,[4],does not
same,24-hour Urinary Protein Loss Mean ± SE,"STZ-diabetic Wistar rats [5]; 20 mg/kg daily, series 1",3.66 ± 1.39 mg/24 h
same,effect on STZ-diabetes-induced urinary protein loss,STZ-diabetic Wistar rats [5],significantly reduced
"O=C(O)/C=C\C(=O)O.[O-][n+]1cccc(C(Cl)=NOCC(O)CN2CCCCC2)c1 (stereo not shown) [Compound A, N-[2-hydroxy-3-(1-piperidinyl)-propoxy]-pyridine-1-oxide-3-carboximidoyl chloride (Z)-2-butenedioate (1:1)]",Score values Improvement %,STZ-diabetic Wistar rats [1]; 5 mg/kg daily,74.5%
same,Score values Mean ± SE (retinopathy histology),STZ-diabetic Wistar rats [1]; 5 mg/kg daily,4.028 ± 0.961
same,"comparison of the two compounds versus diabetic, non-treated animals",STZ-diabetic Wistar rats [1]; Compound A 5 mg/kg vs bimoclomol 20 mg/kg,statistically more effective
same,effect on diabetic retinopathy induced pathological histological alterations,STZ-diabetic Wistar rats [1],significantly improved
same,MNCV,STZ-diabetic Wistar rats [2]; 5 mg/kg p.os once a day,57.4 ± 0.3 m/s
same,MNCV improvement,STZ-diabetic Wistar rats [2]; 5 mg/kg p.os once a day,79.5%
same,SNCV,STZ-diabetic Wistar rats [2]; 5 mg/kg p.os once a day,58.4 ± 0.3 m/s
same,SNCV improvement,STZ-diabetic Wistar rats [2]; 5 mg/kg p.os once a day,77.6%
same,MNCV,STZ-diabetic Wistar rats [2]; 10 mg/kg p.os once a day,59.2 ± 0.3 m/s
same,MNCV improvement,STZ-diabetic Wistar rats [2]; 10 mg/kg p.os once a day,90.4%
same,SNCV,STZ-diabetic Wistar rats [2]; 10 mg/kg p.os once a day,60.4 ± 0.4 m/s
same,SNCV improvement,STZ-diabetic Wistar rats [2]; 10 mg/kg p.os once a day,89.0%
same,MNCV,STZ-diabetic Wistar rats [2]; 20 mg/kg p.os once a day,59.1 ± 0.3 m/s
same,MNCV improvement,STZ-diabetic Wistar rats [2]; 20 mg/kg p.os once a day,89.8%
same,SNCV,STZ-diabetic Wistar rats [2]; 20 mg/kg p.os once a day,60.1 ± 0.3 m/s
same,SNCV improvement,STZ-diabetic Wistar rats [2]; 20 mg/kg p.os once a day,87.4%
same,effect on motor (MNCV) and sensor (SNCV) nerve conduction velocities,STZ-diabetic Wistar rats [2],significantly improved
same,effect of an increase in the dose over 10 mg/kg on NCV improvement,STZ-diabetic Wistar rats [2]; dose over 10 mg/kg,did not increase the effect
same,MNCV,"STZ-diabetic Wistar rats [6]; 10 mg/kg daily, 1 month",59.3 ± 0.3 m/s
same,MNCV improvement,"STZ-diabetic Wistar rats [6]; 10 mg/kg daily, 1 month",78.9%
same,SNCV improvement,"STZ-diabetic Wistar rats [6]; 10 mg/kg daily, 1 month",79.2%
same,effect on motor (MNCV) and sensory (SNCV) nerve conduction velocity deficits,STZ-diabetic Wistar rats [6]; [9],significantly improved
same,Scores lenticular + retinal improvement %,STZ-diabetic rats; 10 mg/kg daily,34.7%
same,Scores lenticular + retinal mean ± SE,STZ-diabetic rats; 10 mg/kg daily,4.55 ± 0.69
same,Scores retinal improvement %,STZ-diabetic rats; 10 mg/kg daily,65.8%
same,Scores retinal mean ± SE,STZ-diabetic rats; 10 mg/kg daily,1.80 ± 0.75
same,effect on lenticular and retinal pathologic histological alterations,STZ-diabetic rats; [9],not significant
same,effect on retinal histological alterations only,STZ-diabetic rats; [9],effective
same,effect on pathological deviations resulting from autonomous neuropathy,STZ-diabetic Wistar rats [3],significantly reduced
same,Heart left ventricular hypertrophy (deviation due to diabetes),STZ-diabetic Wistar rats [3]; 1 month,↑ (corrects)
same,Increased negative chronotropic effect on vagus stimulation,STZ-diabetic Wistar rats [3]; 1 month,↑ (corrects)
same,Reduced hypotension on vagus stimulation,STZ-diabetic Wistar rats [3]; 1 month,↑ (corrects)
same,Reduced IS induced systemic arterial hypotension,STZ-diabetic Wistar rats [3]; [8],— (ineffective)
same,neuroregeneration of the non-freezed nerves,STZ-diabetic Wistar rats [7]; 10 mg/kg daily for 5 weeks,44%
same,extent of neuroregeneration of the nerve injured by freezing,"STZ-diabetic Wistar rats [7]; 10 mg/kg daily for 5 weeks after injury, 5. week, untreated 63%",73%
same,effect on fasting blood glucose,[4]; 20 mg/kg p.os daily,significantly reduced
same,effect on fasting insulin concentration,[4]; 20 mg/kg p.os daily,significantly reduced
same,reduction of fasting insulin concentration,[4]; 20 mg/kg p.os daily,approx. 50%
same,Fasting Blood Glucose (mean ± SE),[4]; 20 mg/kg p.os daily,8.267 ± 0.436 mmol/L
same,Fasting Insulin (mean ± SE),[4]; 20 mg/kg p.os daily,11.176 ± 1.955 ng/mL
same,effect on AUC of insulin,[4],"reduced it significantly, to the same level as the Lean control"
same,effect on area under the blood glucose curve (AUC),[4],"neither bimoclomol, nor Compound A effected"
same,Blood Glucose (AUC) (mean ± SE),[4]; 20 mg/kg p.os daily,1418.40 ± 194.57
same,Insulin (AUC) (mean ± SE),[4]; 20 mg/kg p.os daily,790.35 ± 166.08
same,effect on peripheral insulin resistance,[4],significantly reduces
same,24-hour Urinary Protein Loss Mean ± SE,"STZ-diabetic Wistar rats [5]; 10 mg/kg daily, series 2",12.06 ± 1.70 mg/24 h
same,effect on STZ-diabetes-induced urinary protein loss,STZ-diabetic Wistar rats [5],non-significantly reduced
